Laboratory results taken from patent US20020137929A1, “1 - (3-heterocyclylphenyl) isothiourea, -isourea, -guanidine and -amidine herbicidal agents” (Intellectual Property Department, BASF Aktiengesellschaft, priority 1998, published 2002).

Experiments:
ECHCG (Barnyardgrass) [1] = test: Preemergence herbicidal evaluation; type: in vivo, Echinochloa crus-galli; details: rated 4-5 weeks after treatment
Summary of the method: (§1)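 Each species is sown separately in potting soil over roughly an inch of soil before any emergence. The soil surface then receives an aqueous acetone spray delivering about 0.0156 to 0.500 kg/ha of compound. After four to five weeks, injury is scored from 0 to 9 relative to a control.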

CASOB (Sicklepod) = test: Preemergence herbicidal evaluation; type: in vivo, Cassia obtusifolia; details: rated 4-5 weeks after treatment
Summary of the method: as §1

[2] = test system: TRZAWR (Wheat, Winter, cv Riband); test: Preemergence herbicidal evaluation; type: in vivo, Triticum aestivum; details: rated 4-5 weeks after treatment
Summary of the method: as §1

ZEAMX (Corn, Field) [3] = test: Postemergence herbicidal evaluation; type: in vivo, Zea mays
Summary of the method: (§2)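 Scores (0–9) reflect plant stand, vigor, malformation, size, chlorosis and general appearance relative to control, read 4 to 5 weeks after treatment and averaged where tests were repeated. Application: about 0.0156–0.500 kg/ha sprayed at 40 psi onto two-week seedlings.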

[4] = test system: IPOHE (Morningglory, Ivyleaf); test: Preemergence herbicidal evaluation; type: in vivo, Ipomoea hederacea; details: rated 4-5 weeks after treatment
Summary of the method: as §1

ZEAMX (Corn, Field) [5] = test: Preemergence herbicidal evaluation; type: in vivo, Zea mays; details: rated 4-5 weeks after treatment
Summary of the method: as §1

CYPSE (Flatsedge) = test: Postemergence weed control under flooded paddy conditions; type: in vivo, Cyperus serotinus; details: postemergence weeds, 3-4 weeks after treatment
Summary of the method: (§3)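 Injury ratings (0–9 scale covering stand, vigor, malformation, size, chlorosis and overall appearance versus control) were made three to four weeks after treatment. Test material, about 0.0313 to 0.500 kg/ha a.i. in 50/50 v/v aqueous/acetone, was added to flood water 1.5 to 3 cm deep over 3 to 5 cm weeds and 1.5 to 2.5 leaf rice.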

CYPIR (Rice Flatsedge) = test: as above; type: in vivo, Cyperus iria; details: postemergence weeds, 3-4 weeks after treatment
Summary of the method: as §3

ECHCG (Barnyardgrass) [6] = test: Postemergence herbicidal evaluation; type: in vivo, Echinochloa crus-galli
Summary of the method: as §2

[7] = test system: GLXMAW (Soybean, Williams); test: Preemergence herbicidal evaluation; type: in vivo, Glycine max, (L.) Merr. cv Williams; details: rated 4-5 weeks after treatment
Summary of the method: as §1

[8] = test system: CHEAL (Lambsquarters, Common); test: Preemergence herbicidal evaluation; type: in vivo, Chenopodium album; details: rated 4-5 weeks after treatment
Summary of the method: as §1

ABUTH (Velvetleaf) [9] = test: Postemergence herbicidal evaluation; type: in vivo, Abutilon theophrasti
Summary of the method: as §2

[10] = test system: CHEAL (Lambsquarters, Common); test: Postemergence herbicidal evaluation; type: in vivo, Chenopodium album
Summary of the method: as §2

ABUTH (Velvetleaf) [11] = test: Preemergence herbicidal evaluation; type: in vivo, Abutilon theophrasti; details: rated 4-5 weeks after treatment
Summary of the method: as §1

ORYSAT (Rice, Tebonnet) = test: Postemergence herbicidal evaluation; type: in vivo, Oryza sativa, (L.) Tebonnet
Summary of the method: as §2

[12] = test system: IPOHE (Morningglory, Ivyleaf); test: Postemergence herbicidal evaluation; type: in vivo, Ipomoea hederacea
Summary of the method: as §2

SETVI (Foxtail, Green) = test: Postemergence herbicidal evaluation; type: in vivo, Setaria viridis
Summary of the method: as §2

With `CCOC(=O)CN1C(=O)C(Cc2ccccc2OC(C)C(=O)OC)SC1=Nc1cc(-n2c(=O)cc(C(F)(F)F)n(C)c2=O)c(F)cc1Cl` (centres unmarked) [Compound 50, 2-{{2-Chloro-5-[3,6-dihydro-3-methyl-2,6-dioxo-4-(trifluoromethyl)-1(2H)-pyrimidinyl]-4-fluoro-phenyl}imino}-5-(o-hydroxybenzyl)-4-oxo-3-thiazolidineacetic acid, ethyl ester, ester with methyl lactate] the “Preemergence herbicidal rating ECHCG” value (ECHCG (Barnyardgrass) [1]; rate 0.0625 kg/ha) was 0.0, the “Preemergence herbicidal rating ECHCG” value (ECHCG (Barnyardgrass) [1]; rate 0.1250 kg/ha) was 0.0 and the “Preemergence herbicidal rating ECHCG” value (ECHCG (Barnyardgrass) [1]; rate 0.2500 kg/ha) was 0.0. For the same molecule, the “Preemergence herbicidal rating CASOB” value (CASOB (Sicklepod); rate 0.0625 kg/ha) was 0.0, the “Preemergence herbicidal rating CASOB” value (CASOB (Sicklepod); rate 0.1250 kg/ha) was 9.0 and the “Preemergence herbicidal rating CASOB” value (CASOB (Sicklepod); rate 0.2500 kg/ha) was 9.0. For the same molecule, the “Preemergence herbicidal rating TRZAWR” value ([2]; rate 0.0625 kg/ha) was 0.0, the “Preemergence herbicidal rating TRZAWR” value ([2]; rate 0.1250 kg/ha) was 0.0 and the “Preemergence herbicidal rating TRZAWR” value ([2]; rate 0.2500 kg/ha) was 0.0. For the same molecule, the “Postemergence herbicidal rating ZEAMX” value (ZEAMX (Corn, Field) [3]; Rate 0.0156 kg/ha) was 5.0, the “Postemergence herbicidal rating ZEAMX” value (ZEAMX (Corn, Field) [3]; Rate 0.0313 kg/ha) was 5.0 and the “Postemergence herbicidal rating ZEAMX” value (ZEAMX (Corn, Field) [3]; Rate 0.0625 kg/ha) was 5.5. The “Preemergence herbicidal rating IPOHE” value ([4]; rate 0.0625 kg/ha) was 0.0, the “Preemergence herbicidal rating IPOHE” value ([4]; rate 0.1250 kg/ha) was 0.0 and the “Preemergence herbicidal rating IPOHE” value ([4]; rate 0.2500 kg/ha) was 0.0. The “Preemergence herbicidal rating ZEAMX” value (ZEAMX (Corn, Field) [5]; rate 0.0625 kg/ha) was 0.0, the “Preemergence herbicidal rating ZEAMX” value (ZEAMX (Corn, Field) [5]; rate 0.1250 kg/ha) was 0.0 and the “Preemergence herbicidal rating ZEAMX” value (ZEAMX (Corn, Field) [5]; rate 0.2500 kg/ha) was 0.0. The “Herbicidal rating CYPSE” value (CYPSE (Flatsedge); rate 0.0313 kg/ha) was 0.0, the “Herbicidal rating CYPSE” value (CYPSE (Flatsedge); rate 0.0625 kg/ha) was 0.0 and the “Herbicidal rating CYPSE” value (CYPSE (Flatsedge); rate 0.1250 kg/ha) was 0.0. The “Herbicidal rating CYPSE” value (CYPSE (Flatsedge); rate 0.2500 kg/ha) was 0.0, the “Herbicidal rating CYPIR” value (CYPIR (Rice Flatsedge); rate 0.0313 kg/ha) was 0.0 and the “Herbicidal rating CYPIR” value (CYPIR (Rice Flatsedge); rate 0.0625 kg/ha) was 0.0. For the same molecule, the “Herbicidal rating CYPIR” value (CYPIR (Rice Flatsedge); rate 0.1250 kg/ha) was 0.0, the “Herbicidal rating CYPIR” value (CYPIR (Rice Flatsedge); rate 0.2500 kg/ha) was 0.0 and the “Postemergence herbicidal rating ECHCG” value (ECHCG (Barnyardgrass) [6]; Rate 0.0156 kg/ha) was 0.0. The “Postemergence herbicidal rating ECHCG” value (ECHCG (Barnyardgrass) [6]; Rate 0.0313 kg/ha) was 0.0, the “Postemergence herbicidal rating ECHCG” value (ECHCG (Barnyardgrass) [6]; Rate 0.0625 kg/ha) was 2.0 and the “Preemergence herbicidal rating GLXMAW” value ([7]; rate 0.0625 kg/ha) was 0.0. The “Preemergence herbicidal rating GLXMAW” value ([7]; rate 0.1250 kg/ha) was 0.0, the “Preemergence herbicidal rating GLXMAW” value ([7]; rate 0.2500 kg/ha) was 0.0 and the “Preemergence herbicidal rating CHEAL” value ([8]; rate 0.0625 kg/ha) was 0.0. For the same molecule, the “Preemergence herbicidal rating CHEAL” value ([8]; rate 0.1250 kg/ha) was 9.0, the “Preemergence herbicidal rating CHEAL” value ([8]; rate 0.2500 kg/ha) was 9.0 and the “Postemergence herbicidal rating ABUTH” value (ABUTH (Velvetleaf) [9]; Rate 0.0156 kg/ha) was 6.0. For the same molecule, the “Postemergence herbicidal rating ABUTH” value (ABUTH (Velvetleaf) [9]; Rate 0.0313 kg/ha) was 9.0, the “Postemergence herbicidal rating ABUTH” value (ABUTH (Velvetleaf) [9]; Rate 0.0625 kg/ha) was 9.0 and the “Postemergence herbicidal rating CHEAL” value ([10]; Rate 0.0156 kg/ha) was 0.0. The “Postemergence herbicidal rating CHEAL” value ([10]; Rate 0.0313 kg/ha) was 3.0, the “Postemergence herbicidal rating CHEAL” value ([10]; Rate 0.0625 kg/ha) was 5.0 and the “Preemergence herbicidal rating ABUTH” value (ABUTH (Velvetleaf) [11]; rate 0.0625 kg/ha) was 9.0. The “Preemergence herbicidal rating ABUTH” value (ABUTH (Velvetleaf) [11]; rate 0.1250 kg/ha) was 9.0, the “Preemergence herbicidal rating ABUTH” value (ABUTH (Velvetleaf) [11]; rate 0.2500 kg/ha) was 9.0 and the “Postemergence herbicidal rating ORYSAT” value (ORYSAT (Rice, Tebonnet); Rate 0.0156 kg/ha) was 1.0. For the same molecule, the “Postemergence herbicidal rating ORYSAT” value (ORYSAT (Rice, Tebonnet); Rate 0.0313 kg/ha) was 1.0, the “Postemergence herbicidal rating ORYSAT” value (ORYSAT (Rice, Tebonnet); Rate 0.0625 kg/ha) was 2.0 and the “Postemergence herbicidal rating IPOHE” value ([12]; Rate 0.0156 kg/ha) was 9.0. For the same molecule, the “Postemergence herbicidal rating IPOHE” value ([12]; Rate 0.0313 kg/ha) was 9.0, the “Postemergence herbicidal rating IPOHE” value ([12]; Rate 0.0625 kg/ha) was 9.0 and the “Postemergence herbicidal rating SETVI” value (SETVI (Foxtail, Green); Rate 0.0156 kg/ha) was 0.0. The “Postemergence herbicidal rating SETVI” value (SETVI (Foxtail, Green); Rate 0.0313 kg/ha) was 0.0 and the “Postemergence herbicidal rating SETVI” value (SETVI (Foxtail, Green); Rate 0.0625 kg/ha) was 2.0.
